Marks after values point to notes of the source that are not given here.
Legend:
[1] = Population pharmacokinetic analysis of ritonavir plasma concentrations (CHAPAS-4 pharmacokinetic sub-study, week 6, NONMEM)
Description: The trial included children with HIV from Zambia, Uganda, and Zimbabwe, aged 3–15 years, weighing at least 14 kg (Table 1), receiving abacavir-, zidovudine-, or stavudine-containing NRTI backbone and failing on ART according to WHO criteria (confirmed viral load >1,000 copies/mL after adherence counseling or CD4 criteria for failure or clinical criteria for failure). A nested pharmacokinetic sub-study was conducted within the CHAPAS-4 trial. […] Written informed consent was given by parents/caregivers, and local and national ethics committees approved the main trial and nested pharmacokinetic sub-study.
The dose depended on the companion PI (Table 2). NRTI backbones were also dosed according to weight bands. Children were followed up for 96 weeks. Pharmacokinetic blood samples were collected after week 6 of study treatment. Samples were collected at pre-dose, 0.5 (only for those on TAF/FTC), 1, 2, 4, 6, 8, 12, and 24 hours post-dose, and plasma was stored at −80°C. On the day of pharmacokinetic blood sampling, study drugs were administered under direct observation, with food (breakfast with 5% fat, ~250 kCal). All non-ART co-medications were taken at least 2 hours after study drugs.
R v4.2.2 via RStudio (Posit Public Benefit Corporation) and Pirana v2.9.9 (Certara, Inc.) were utilized to visualize and process the data, and Perl Speaks NONMEM v5.2.6 (Department of Pharmacy, Uppsala University) was used for automation of the analysis processes ([17]).
We tested one- and two-compartment disposition models and several absorption models (sequential zero- and/or first-order, with lag time or transit compartments). Simple first-order elimination as well as first-pass and saturable elimination through a liver compartment were tested. We included between-subject variability (BSV) on disposition parameters and between-occasion variability (BOV) on absorption parameters, assuming a log-normal distribution. Combined additive and proportional error models to describe residual unexplained variability were evaluated. Samples with undetectable drug concentrations were treated as censored at the limit of detection (LOD), which was imputed as 30% of the LLOQ ([19]), and handled using a modified version of the M6 method by Beal ([20]). The undetectable (i.e., censored) values were imputed to half of the LOD value (LOD/2), and the additive error was inflated by LOD/2. If a series of undetectable values was present, the value closest to the peak concentration was retained, while all trailing values were excluded from the model fit but retained for simulation-based diagnostics.
(§1) Covariates were maintained if they reached statistical significance of P < 0.05 on forward addition and P < 0.01 on backward elimination. […] The performance of intermediate and final models was assessed both numerically and using goodness of fit plots, and by simulation-based diagnostics such as visual predictive checks (VPC) ([23]). Parameter precision was evaluated using the sampling importance resampling (SIR) procedure ([24]). The effect of covariates on the simulated area under the curve from 0 to 24 hours (AUC0–24 h) for all study arms was visualized using a forest plot based on 1,000 simulations accounting for parameter uncertainty ([25]).

[2] = design: method as in PMID 19210693; conditions: cross-over pharmacokinetic study; cited from earlier work
[3] = Covariate effects forest plot of simulated ritonavir AUC0–24 h (1,000 simulations accounting for parameter uncertainty); design: species or system African children with HIV; conditions: reference a child of 26 kg receiving 100 mg of ritonavir in combination with darunavir
Description: as §1

For `CC(C)c1nc(CN(C)C(=O)N[C@H](C(=O)N[C@@H](Cc2ccccc2)C[C@H](O)[C@H](Cc2ccccc2)NC(=O)OCc2cncs2)C(C)C)cs1` [ritonavir], the “Observed Cmax of ritonavir, median (interquartile range)” value (from here on “Observed Cmax of ritonavir, median”) ([1]; atazanavir/ritonavir once daily, weight band 14–19.9 kg, ATV/r 200/75 mg, 3 out of 12 children got 100 mg ritonavir instead of 75 mg) was 2.68 (2.33–3.25)^a mg/L, the “Observed Cmax of ritonavir, median” value ([1]; darunavir/ritonavir once daily, weight band 20–24.9 kg, DRV/r 600/100 mg) was 1.27 (1.10–1.52) mg/L and the “Observed Cmax of ritonavir, median” value ([1]; darunavir/ritonavir once daily, weight band ≥35 kg, DRV/r 800/100 mg) was 0.81 (0.53–1.04) mg/L. For the same compound, the “Between-occasion variability, Bioavailability” value ([1]; human, in vivo) was 40.1 (35.2–46.0) %, the “Between-occasion variability, First-order absorption rate constant” value ([1]; human, in vivo) was 114 (90.0–141) % and the “Between-occasion variability, Lag time” value ([1]; human, in vivo) was 62.0 (54.5–70.2) %. For the same compound, the “Between-occasion variability, Zero-order rate of absorption” value ([1]; human, in vivo) was 52.5 (42.7–63.0) %, the “Between-subject variability, Clearance” value ([1]; human, in vivo) was 13.1 (10.2–15.8) % and the “Extra variability for unobserved doses” value ([1]; human, in vivo) was 2.14 (1.53–2.42) fold change. The “First-order absorption rate constant, typical value (95% confidence interval)” value ([1]; human, in vivo) was 1.16 (0.893–1.89) 1/h, the “Lag time, typical value (95% confidence interval)” value ([1]; human, in vivo) was 0.981 (0.934–1.06) h and the “Zero-order absorption duration, typical value (95% confidence interval)” value ([1]; human, in vivo) was 2.45 (2.05–2.80) h. For the same compound, the “Central volume of distribution, typical value (95% confidence interval)” value ([1]; human, in vivo, po) was 54.5 (48.9–60.4) L, the “Clearance, typical value (95% confidence interval)” value ([1]; human, in vivo, po) was 10.5 (9.22–11.9) L/h and the Cmax ([1]; human, in vivo, po) was 1320 ng/mL. The “Intercompartmental clearance, typical value (95% confidence interval)” value ([1]; human, in vivo, po) was 1.19 (0.851–1.58) L/h, the “Peripheral volume of distribution, typical value (95% confidence interval)” value ([1]; human, in vivo, po) was 134 (38.8–330) L and the Cmax ([1]; human, in vivo, po, 100 mg, Observed Cmax of ritonavir, median (interquartile range)) was 2760 ng/mL. For the same compound, the “Model-based AUC0–24 h of ritonavir, median (interquartile range)” value ([1]; lopinavir/ritonavir twice daily, weight band 20–24.9 kg, daily dose LPV/r 400/100 mg) was 10.3 (7.30–12.8) mg·h/L, the “Observed Cmax of ritonavir, median” value ([1]; lopinavir/ritonavir twice daily, weight band ≥35 kg, daily dose LPV/r 800/200 mg) was 0.80 (0.47–1.42) mg/L and the “Lowering of plasma AUC of ritonavir by darunavir” value [2] was 14%. The “Increase of ritonavir AUC0–24 h by atazanavir” value [3] was 99.0%.
